For one experiment, the target named is T1, Thromboxane A2 receptor (Homo sapiens, UniProt P21731).
T1 sequence (P21731 whole entry): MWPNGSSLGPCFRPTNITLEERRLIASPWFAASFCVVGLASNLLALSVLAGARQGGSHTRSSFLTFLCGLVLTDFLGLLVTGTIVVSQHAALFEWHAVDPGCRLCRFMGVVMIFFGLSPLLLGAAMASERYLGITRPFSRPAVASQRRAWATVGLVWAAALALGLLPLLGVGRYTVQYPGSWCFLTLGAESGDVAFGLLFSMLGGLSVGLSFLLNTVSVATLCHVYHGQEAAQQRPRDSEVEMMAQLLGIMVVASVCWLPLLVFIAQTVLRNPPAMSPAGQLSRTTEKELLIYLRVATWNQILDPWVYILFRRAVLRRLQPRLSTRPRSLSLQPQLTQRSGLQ
Format: functional.

A further experiment addresses D(1B) dopamine receptor (Homo sapiens, UniProt P21918).
The target of the next experiment is Cannabinoid receptor 1 (Homo sapiens, UniProt P21554). Format: functional.
The target in experiment [1] is 5-hydroxytryptamine receptor 6 (Homo sapiens, UniProt P50406).
For experiment [2], the target named is T2, Muscarinic acetylcholine receptor M5 (Homo sapiens, UniProt P08912).
T2 sequence (P08912 whole entry): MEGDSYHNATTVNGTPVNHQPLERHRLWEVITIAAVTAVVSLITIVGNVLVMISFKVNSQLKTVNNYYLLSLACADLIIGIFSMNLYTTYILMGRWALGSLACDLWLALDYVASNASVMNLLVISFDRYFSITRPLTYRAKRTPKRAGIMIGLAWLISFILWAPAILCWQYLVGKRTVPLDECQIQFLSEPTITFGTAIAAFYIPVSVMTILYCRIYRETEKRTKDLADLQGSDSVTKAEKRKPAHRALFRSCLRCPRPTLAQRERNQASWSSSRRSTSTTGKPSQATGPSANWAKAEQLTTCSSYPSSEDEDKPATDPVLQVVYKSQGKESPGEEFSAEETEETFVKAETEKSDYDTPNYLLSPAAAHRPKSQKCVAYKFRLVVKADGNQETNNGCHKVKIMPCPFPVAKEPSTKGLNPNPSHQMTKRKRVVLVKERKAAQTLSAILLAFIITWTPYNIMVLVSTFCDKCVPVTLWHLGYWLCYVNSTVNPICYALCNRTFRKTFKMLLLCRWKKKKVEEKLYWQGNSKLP

The target of experiment [3] is Rod cGMP-specific 3',5'-cyclic phosphodiesterase subunit alpha (Homo sapiens, UniProt P16499). Format: functional.
Experiment [4] concerns the target 5-hydroxytryptamine receptor 5A (Homo sapiens, UniProt P47898).
Experiment [5] deals with 5-hydroxytryptamine receptor 7 (Homo sapiens, UniProt P34969).
Experiment [6] addresses T3, Androgen receptor (Rattus norvegicus, UniProt P15207).
T3 sequence (P15207 whole entry): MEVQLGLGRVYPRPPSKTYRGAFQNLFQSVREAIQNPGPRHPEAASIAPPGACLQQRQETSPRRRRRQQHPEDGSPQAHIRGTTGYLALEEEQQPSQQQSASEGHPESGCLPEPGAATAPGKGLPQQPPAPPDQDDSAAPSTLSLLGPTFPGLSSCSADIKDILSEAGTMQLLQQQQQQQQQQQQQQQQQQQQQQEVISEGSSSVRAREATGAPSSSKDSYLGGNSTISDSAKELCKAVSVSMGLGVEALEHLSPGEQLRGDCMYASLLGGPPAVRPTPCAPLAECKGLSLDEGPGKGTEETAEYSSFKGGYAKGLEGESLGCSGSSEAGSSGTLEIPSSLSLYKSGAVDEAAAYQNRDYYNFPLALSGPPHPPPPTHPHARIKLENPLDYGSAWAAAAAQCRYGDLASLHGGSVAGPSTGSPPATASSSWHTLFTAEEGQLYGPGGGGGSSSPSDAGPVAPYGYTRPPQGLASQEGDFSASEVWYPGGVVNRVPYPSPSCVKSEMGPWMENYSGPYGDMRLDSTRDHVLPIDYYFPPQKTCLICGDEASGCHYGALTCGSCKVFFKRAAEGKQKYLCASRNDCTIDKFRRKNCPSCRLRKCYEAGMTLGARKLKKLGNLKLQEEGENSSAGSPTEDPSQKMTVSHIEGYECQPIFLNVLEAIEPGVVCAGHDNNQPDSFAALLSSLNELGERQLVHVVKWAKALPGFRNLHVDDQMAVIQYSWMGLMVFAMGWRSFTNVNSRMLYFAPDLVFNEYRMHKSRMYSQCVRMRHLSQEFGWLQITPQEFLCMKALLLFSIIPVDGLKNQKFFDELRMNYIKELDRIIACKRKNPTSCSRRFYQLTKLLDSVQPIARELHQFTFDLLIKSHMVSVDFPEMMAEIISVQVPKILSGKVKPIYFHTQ

The target in experiment [7] is Hydroxycarboxylic acid receptor 2 (Homo sapiens, UniProt Q8TDS4).
Experiment [8] has as its target Gamma-aminobutyric acid type B receptor subunit 1 (Homo sapiens, UniProt Q9UBS5).
In experiment [9] the target is Synaptic vesicular amine transporter (Rattus norvegicus, UniProt Q01827). It is filed as functional.
Experiment [10] deals with Sodium channel protein type 5 subunit alpha (Homo sapiens, UniProt Q14524). Format: functional, cell-based.
Experiment [11] deals with T3, Androgen receptor. It is filed as functional.
The target of experiment [12] is Voltage-dependent L-type calcium channel subunit alpha-1C (Homo sapiens, UniProt Q13936). It is filed as functional, cell-based.

A value given as a limit tells only on which side of the number the result lay.
Further: assay procedure not described here.

Chain of Gamma-aminobutyric acid type B receptor subunit 1 (Q9UBS5 whole entry): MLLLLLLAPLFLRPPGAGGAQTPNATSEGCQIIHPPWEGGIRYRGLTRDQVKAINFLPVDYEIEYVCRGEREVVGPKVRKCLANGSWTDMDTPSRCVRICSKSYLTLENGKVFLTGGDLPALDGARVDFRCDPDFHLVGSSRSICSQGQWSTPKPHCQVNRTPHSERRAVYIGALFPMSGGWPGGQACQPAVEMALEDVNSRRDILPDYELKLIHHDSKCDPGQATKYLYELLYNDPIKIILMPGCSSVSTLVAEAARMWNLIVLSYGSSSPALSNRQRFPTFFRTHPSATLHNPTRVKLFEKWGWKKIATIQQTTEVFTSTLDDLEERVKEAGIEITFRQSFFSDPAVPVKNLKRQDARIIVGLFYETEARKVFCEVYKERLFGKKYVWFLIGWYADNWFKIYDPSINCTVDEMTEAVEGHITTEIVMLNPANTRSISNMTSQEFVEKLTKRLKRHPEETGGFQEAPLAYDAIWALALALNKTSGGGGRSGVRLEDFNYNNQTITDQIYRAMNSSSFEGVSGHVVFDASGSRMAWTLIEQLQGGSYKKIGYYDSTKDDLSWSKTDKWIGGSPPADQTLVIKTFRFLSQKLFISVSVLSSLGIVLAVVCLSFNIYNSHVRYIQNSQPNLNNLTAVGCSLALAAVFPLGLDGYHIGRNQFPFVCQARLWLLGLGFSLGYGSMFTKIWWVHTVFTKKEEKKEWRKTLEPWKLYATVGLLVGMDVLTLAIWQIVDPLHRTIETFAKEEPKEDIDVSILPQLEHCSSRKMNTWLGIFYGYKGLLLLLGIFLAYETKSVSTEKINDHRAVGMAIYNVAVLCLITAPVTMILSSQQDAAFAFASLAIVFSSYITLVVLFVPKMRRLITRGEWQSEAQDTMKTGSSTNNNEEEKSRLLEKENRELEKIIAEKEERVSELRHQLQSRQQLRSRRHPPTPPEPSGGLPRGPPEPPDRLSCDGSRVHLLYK
Chain of Rod cGMP-specific 3',5'-cyclic phosphodiesterase subunit alpha (P16499 whole entry): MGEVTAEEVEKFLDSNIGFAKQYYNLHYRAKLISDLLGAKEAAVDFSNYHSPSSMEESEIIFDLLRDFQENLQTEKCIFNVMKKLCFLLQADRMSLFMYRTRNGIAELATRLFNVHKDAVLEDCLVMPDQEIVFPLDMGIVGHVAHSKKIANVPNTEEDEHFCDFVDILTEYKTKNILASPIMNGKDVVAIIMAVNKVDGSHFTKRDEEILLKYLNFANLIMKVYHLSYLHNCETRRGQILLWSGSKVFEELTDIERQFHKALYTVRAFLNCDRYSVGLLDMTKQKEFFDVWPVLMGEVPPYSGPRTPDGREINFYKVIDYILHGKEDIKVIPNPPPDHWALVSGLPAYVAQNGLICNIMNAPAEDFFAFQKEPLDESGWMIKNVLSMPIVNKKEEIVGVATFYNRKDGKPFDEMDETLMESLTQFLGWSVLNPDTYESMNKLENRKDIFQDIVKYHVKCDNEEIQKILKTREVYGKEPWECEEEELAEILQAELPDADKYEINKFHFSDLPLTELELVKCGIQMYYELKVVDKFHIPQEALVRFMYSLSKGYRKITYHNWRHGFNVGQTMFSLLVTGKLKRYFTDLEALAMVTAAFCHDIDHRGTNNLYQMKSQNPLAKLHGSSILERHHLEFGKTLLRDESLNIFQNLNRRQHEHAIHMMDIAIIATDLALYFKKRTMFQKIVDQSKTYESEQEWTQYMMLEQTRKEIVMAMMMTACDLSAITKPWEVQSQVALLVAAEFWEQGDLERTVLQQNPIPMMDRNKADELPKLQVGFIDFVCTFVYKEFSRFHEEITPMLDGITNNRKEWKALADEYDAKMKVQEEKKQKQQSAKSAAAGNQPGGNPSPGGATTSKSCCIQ
Chain of D(1B) dopamine receptor (P21918 whole entry): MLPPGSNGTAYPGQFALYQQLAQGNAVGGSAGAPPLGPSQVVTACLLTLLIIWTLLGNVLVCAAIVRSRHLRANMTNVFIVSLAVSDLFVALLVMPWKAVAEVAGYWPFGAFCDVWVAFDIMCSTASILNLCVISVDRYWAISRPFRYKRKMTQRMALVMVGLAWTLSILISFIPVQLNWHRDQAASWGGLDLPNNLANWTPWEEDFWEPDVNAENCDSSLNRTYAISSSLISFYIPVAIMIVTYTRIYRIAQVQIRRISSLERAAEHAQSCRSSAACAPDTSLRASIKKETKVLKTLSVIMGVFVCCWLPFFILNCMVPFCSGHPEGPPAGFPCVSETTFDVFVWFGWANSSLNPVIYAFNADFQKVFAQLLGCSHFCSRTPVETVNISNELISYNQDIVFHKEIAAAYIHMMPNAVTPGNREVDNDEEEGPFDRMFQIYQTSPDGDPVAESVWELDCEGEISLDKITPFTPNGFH
Chain of 5-hydroxytryptamine receptor 5A (P47898 whole entry): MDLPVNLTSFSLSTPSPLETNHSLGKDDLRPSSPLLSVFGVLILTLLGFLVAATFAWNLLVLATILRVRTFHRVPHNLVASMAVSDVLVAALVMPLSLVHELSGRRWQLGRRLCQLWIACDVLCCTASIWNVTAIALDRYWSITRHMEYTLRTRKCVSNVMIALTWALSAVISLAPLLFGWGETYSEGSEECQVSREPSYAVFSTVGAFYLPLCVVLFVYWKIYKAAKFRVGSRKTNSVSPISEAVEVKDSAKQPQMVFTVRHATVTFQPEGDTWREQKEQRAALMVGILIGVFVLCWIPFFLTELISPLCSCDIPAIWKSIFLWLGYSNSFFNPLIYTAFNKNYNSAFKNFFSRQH
Chain of Synaptic vesicular amine transporter (Q01827 whole entry): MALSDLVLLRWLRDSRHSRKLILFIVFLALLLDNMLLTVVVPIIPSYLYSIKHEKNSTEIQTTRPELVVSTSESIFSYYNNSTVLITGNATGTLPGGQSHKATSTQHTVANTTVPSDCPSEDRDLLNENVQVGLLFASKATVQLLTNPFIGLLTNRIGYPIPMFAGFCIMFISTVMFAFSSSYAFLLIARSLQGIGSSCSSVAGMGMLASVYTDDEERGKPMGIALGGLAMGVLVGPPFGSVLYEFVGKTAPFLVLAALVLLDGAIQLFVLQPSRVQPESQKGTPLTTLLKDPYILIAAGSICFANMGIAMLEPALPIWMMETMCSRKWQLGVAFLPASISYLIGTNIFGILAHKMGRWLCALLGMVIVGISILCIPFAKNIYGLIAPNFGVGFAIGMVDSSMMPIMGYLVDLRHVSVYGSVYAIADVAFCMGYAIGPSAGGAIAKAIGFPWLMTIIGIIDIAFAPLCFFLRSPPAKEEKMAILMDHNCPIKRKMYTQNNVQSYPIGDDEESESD
Chain of Cannabinoid receptor 1 (P21554 whole entry): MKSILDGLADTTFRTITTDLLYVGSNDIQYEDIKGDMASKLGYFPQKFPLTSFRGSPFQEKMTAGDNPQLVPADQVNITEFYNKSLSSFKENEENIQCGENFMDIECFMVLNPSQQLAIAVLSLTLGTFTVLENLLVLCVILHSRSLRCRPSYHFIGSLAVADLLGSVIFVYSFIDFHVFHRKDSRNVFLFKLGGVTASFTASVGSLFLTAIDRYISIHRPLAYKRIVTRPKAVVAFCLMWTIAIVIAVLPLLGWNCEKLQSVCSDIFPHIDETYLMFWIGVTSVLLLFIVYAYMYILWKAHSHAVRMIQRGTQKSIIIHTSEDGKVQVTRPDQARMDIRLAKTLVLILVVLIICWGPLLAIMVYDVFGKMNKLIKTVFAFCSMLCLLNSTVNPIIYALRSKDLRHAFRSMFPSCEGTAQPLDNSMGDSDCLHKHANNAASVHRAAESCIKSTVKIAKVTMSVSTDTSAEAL
Chain of 5-hydroxytryptamine receptor 7 (P34969 whole entry): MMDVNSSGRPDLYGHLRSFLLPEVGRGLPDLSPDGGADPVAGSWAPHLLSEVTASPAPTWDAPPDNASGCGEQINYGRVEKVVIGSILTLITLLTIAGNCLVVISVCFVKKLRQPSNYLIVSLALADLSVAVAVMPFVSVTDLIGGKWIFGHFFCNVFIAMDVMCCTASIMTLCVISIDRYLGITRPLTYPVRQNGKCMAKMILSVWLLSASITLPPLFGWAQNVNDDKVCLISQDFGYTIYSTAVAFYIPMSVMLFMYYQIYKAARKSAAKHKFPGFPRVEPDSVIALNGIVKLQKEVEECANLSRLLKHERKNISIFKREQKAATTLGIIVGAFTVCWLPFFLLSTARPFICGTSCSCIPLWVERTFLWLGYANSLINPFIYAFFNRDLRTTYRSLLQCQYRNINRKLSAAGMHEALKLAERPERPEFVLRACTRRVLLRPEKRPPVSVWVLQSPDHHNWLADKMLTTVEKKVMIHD
Chain of 5-hydroxytryptamine receptor 6 (P50406 whole entry): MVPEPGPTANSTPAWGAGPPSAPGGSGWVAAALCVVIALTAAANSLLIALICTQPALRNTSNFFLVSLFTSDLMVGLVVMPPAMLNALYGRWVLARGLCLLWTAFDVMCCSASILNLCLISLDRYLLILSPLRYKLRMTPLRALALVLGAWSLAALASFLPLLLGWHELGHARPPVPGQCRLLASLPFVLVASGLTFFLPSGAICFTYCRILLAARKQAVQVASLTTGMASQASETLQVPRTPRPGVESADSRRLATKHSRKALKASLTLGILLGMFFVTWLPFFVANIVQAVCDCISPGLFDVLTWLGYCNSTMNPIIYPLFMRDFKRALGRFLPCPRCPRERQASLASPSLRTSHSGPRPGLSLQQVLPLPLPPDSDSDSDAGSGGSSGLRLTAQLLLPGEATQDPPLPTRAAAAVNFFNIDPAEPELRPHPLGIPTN
Chain of Hydroxycarboxylic acid receptor 2 (Q8TDS4 whole entry): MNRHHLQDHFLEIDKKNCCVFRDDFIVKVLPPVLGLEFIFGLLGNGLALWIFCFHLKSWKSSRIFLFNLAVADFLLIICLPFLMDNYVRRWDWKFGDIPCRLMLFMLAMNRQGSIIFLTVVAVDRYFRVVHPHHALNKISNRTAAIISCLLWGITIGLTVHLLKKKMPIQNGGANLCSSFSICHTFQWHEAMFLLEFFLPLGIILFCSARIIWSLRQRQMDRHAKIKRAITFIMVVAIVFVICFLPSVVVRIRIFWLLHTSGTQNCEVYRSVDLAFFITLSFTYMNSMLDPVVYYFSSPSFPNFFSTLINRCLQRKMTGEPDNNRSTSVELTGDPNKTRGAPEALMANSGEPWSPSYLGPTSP

With `NCC(CC(=O)O)c1ccc(Cl)cc1` (stereo not given) [BACLOFEN], the AC50 at Thromboxane A2 receptor is over 30 µM; on D(1B) dopamine receptor, over 10 µM; at Cannabinoid receptor 1 it was over 10 µM; in experiment [1], over 10 µM; in experiment [2] it was over 10 µM; in [3], over 10 µM. The AC50 in experiment [4] and in experiment [5] was over 10 µM in each case.
With `Cc1ccc(-c2cc(C(F)(F)F)nn2-c2ccc(S(N)(=O)=O)cc2)cc1` [CELECOXIB], the AC50 at Androgen receptor [6] was over 30 µM; in experiment [7], over 10 µM; at D(1B) dopamine receptor it was over 10 µM; at Cannabinoid receptor 1, over 10 µM; in experiment [1] it was over 10 µM; in [2] it was over 10 µM. The AC50 in [8], in experiment [3], in experiment [4] and in [5] was over 10 µM each time.
In experiment [9], `CN(C)CC(c1ccc(O)cc1)C1(O)CCCCC1` (stereo not given) [DESVENLAFAXINE] registered an AC50 of over 30 µM.
Same read-out and setting: the figure for `O=C(O)c1cc(O)ccc1O` [GENTISIC ACID] is over 30 µM.
On to `O=C(CCNNC(=O)c1ccncc1)NCc1ccccc1` [NIALAMIDE], for which the values for the concentration at half-maximal activity (AC50) in experiment [10] and in experiment [9] were over 50 µM and over 30 µM, respectively.
On to `CC[C@H]1[C@@H](O)[C@@H]2[C@H](CC[C@]3(C)[C@@H]([C@H](C)CCC(=O)O)CC[C@@H]23)[C@@]2(C)CC[C@@H](O)C[C@@H]12` [OBETICHOLIC ACID], for which the AC50 (in [10]; at Androgen receptor [11]; in experiment [12]; in [9]) was over 30 µM in each case.
Regarding `Cc1c(C(=O)NN2CCCCC2)nn(-c2ccc(Cl)cc2Cl)c1-c1ccc(Cl)cc1` [RIMONABANT], the AC50 at Thromboxane A2 receptor was over 30 µM; at Androgen receptor [6] it was over 30 µM; at D(1B) dopamine receptor, over 10 µM; at Androgen receptor [11], over 30 µM; in experiment [1], over 10 µM; in experiment [2], over 10 µM. The AC50 in experiment [3], in experiment [4] and in experiment [5] was over 10 µM each time.
Regarding `CS(=O)(=O)c1ccc(C2=C(c3ccccc3)C(=O)OC2)cc1` [ROFECOXIB], the AC50 (on D(1B) dopamine receptor; on Cannabinoid receptor 1; in experiment [1]; in [2]; in experiment [8]; in experiment [3]) was over 10 µM throughout. Moreover, the AC50 in experiment [4] and in [5] was over 10 µM in each case.
For the molecule `CO[C@H]1C[C@@H]2CC[C@@H](C)[C@@](O)(O2)C(=O)C(=O)N2CCCC[C@H]2C(=O)O[C@H]([C@H](C)C[C@@H]2CC[C@@H](O)[C@H](OC)C2)CC(=O)[C@H](C)/C=C(\C)[C@@H](O)[C@@H](OC)C(=O)[C@H](C)C[C@H](C)/C=C/C=C/C=C/1C` [SIROLIMUS], the AC50 at Androgen receptor [6] was 11.9 µM; in [12], over 50 µM; in experiment [8], over 10 µM; in [9] it was 23 µM.
Take `CCCCCCOc1nsnc1C1=CCCN(C)C1` [XANOMELINE]: the AC50 in [10] turned out to be 19 µM; in [12] it was 10 µM; in [9], 1.8 µM.

These data come from ChEMBL document CHEMBL5291721, “A preclinical secondary pharmacology resource illuminates target-adverse drug reaction associations of marketed drugs” (Nat Commun, 2023).
